Test results from PubChem BioAssay AID1918954 (Molecular Pharmacology Branch, DTP, NCI, 2023).

Tested on: MDA-MB-468 complex spheroids with HUVEC/MSC, viability
Experiment: Anticancer human tumor MDA-MB-468 cell line growth inhibition;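 further: spheroids exposed to agents for seven days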;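 on viability, T/C: 100% = DMSO vehicle control viability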
Conditions: for IC50: curve of first compound; for viability, T/C: stronger effect = lower value
Source text: Multicellular complex tumor spheroid response to LSD1 Inhibitor Iadademstat in combination with a variety of drugs and investigational agents in selected tumor cell lines
The current study was undertaken to assess response to LSD1 inhibitors in combination with standard-of-care drugs and investigational agents in solid tumor complex spheroid models as well as in the K-562 leukemia. Complex spheroids include a stromal component modeled by human endothelial cells (HUVEC) and fibroblasts modeled by human mesenchymal stem cells (MSCs). The concentration ranges selected for each drug and investigational agent were based upon clinically achievable concentrations if the clinical Cmax of the agent was known.
Compounds. The drugs and investigational agents used in this study are listed on Table 1. All of the agents used, including staurosporine (NSC755774) and gemcitabine (NSC613327), were obtained from the Developmental Therapeutics Program, NCI. FDA-approved anticancer drugs are available from the NCI at http://dtp.nci.nih.gov/branches/dscb/oncology_drugset_explanation.html. Drugs and investigational agents were >95% pure by proton nuclear magnetic resonance (NMR) and liquid chromatography/mass spectrometry (LC/MS). Stock solutions were prepared at 400x in DMSO, stored at -70 degrees C, and diluted in fresh medium prior to their use. The final concentration of DMSO in cell culture wells never exceeded 0.25% (v/v). The FDA-approved anticancer drug set is available from the Developmental Therapeutics Program at https://dtp.cancer.gov/organization/dscb/obtaining/available_plates.htm. All drugs and investigational agents were tested over a range starting from a high concentration at or near the clinical Cmax and decreasing in half-log increments. If the clinical Cmax for an agent had not been determined, the highest concentration tested was 10 microM.
Cell Lines. The patient-derived cancer cell (PDC) lines: 292921-168-R-J2-PDC, K24384-001-R-PDC, and 521955-158-R2-J5-PDC pancreatic carcinomas, 556581-035-R-J1 ovarian carcinoma, 324938-238-R-J1-PDC, 855422-203-R-J1-PDC and 883617-216-R-J1-PDC urothelial bladder carcinomas, 743489-274-T-PDC renal cell carcinoma, 138582-R-J1 Merkel cell tumor, K60290-347-R-J1 and K57222-313-R-J1-PDC glioblastomas, 653999-131-R-J2-PDC, LG0703-F948-PDC, and 349418-098-R-PDC non-small cell lung carcinomas, 885512-296-R-J2-PDC, 171881-019-R-J1-PDC breast carcinomas and 186277-243-T-J2-PDC and 233499-124-R-J2-PDC colon carcinomas were obtained from the NCI Patient-Derived Models Repository (PDMR, https://pdmr.cancer.gov). The established cell lines NCI/ADR-RES (RRID:CVCL_14520 and OVCAR-5 (RRID:CVCL_1628) ovarian carcinomas, 786-O (RRID:CVCL_1051) and A498 (RRID:CVCL_A498) renal cell carcinoma, NCI-H211 (ATCC, cat. CRL-5824; RRID:CVCL_1529), NCI-H196 (ATCC, cat. CRL-5823, RRID:CVCL_1509), SW 1271 (ATCC, cat. CRL-2177, RRID:CVCL_1716) and NCI-H1876 (ATCC, cat. CRL-5902, RRID:CVCL_1503) small cell lung carcinomas, MDA-MB-231 (RRID:CVCL_0062) and MDA-MB-468 (RRID:CVCL_0419)breast carcinomas (10-12). Pooled donor human umbilical vein endothelial cells (HUVEC, Lonza, cat. CC-2519) and human mesenchymal stem cells (hMSC, Lonza, cat. PT-2501) were purchased from Lonza (Walkersville, MD).
Cell Culture. All cells were maintained in an incubator at 37 degrees C and 5% CO2 with 95% humidity. The PDC lines were cultured according to standard operating procedures established by the NCI PDMR (https://pdmr.cancer.gov). Briefly all PDCs were thawed and cultured in Matrigel-coated flasks prepared with a working solution of 1X Ham's F-12 nutrient mix, without supplementation (Invitrogen, Waltham, MA, cat. 11765054), 100 U/mL penicillin-streptomycin (Invitrogen, cat. 15140122), and 2.5% Matrigel (Corning Inc., Corning, NY, cat. 354248) for the first three passages. […]

CC[C@@]1(O)C(=O)OCc2c1cc1n(c2=O)Cc2cc3c(CN(C)C)c(O)ccc3nc2-1 + NC1CC1c1ccc(-c2cccc(O)c2)cc1
IC50 (second compound 0.1 µM): 1.32 nM | IC50 (second compound 0.316 µM): 1.2 nM | IC50 (second compound 1 µM): 1.15 nM | IC50 (second compound 3.16 µM): 1.05 nM | IC50 (second compound 10 µM): 0.731 nM | viability, T/C (second compound 0.1 µM, first compound 0.000316 µM): 95.6% | viability, T/C (second compound 0.1 µM, first compound 0.001 µM): 61.8% | viability, T/C (second compound 0.1 µM, first compound 0.00316 µM): 12.6% | viability, T/C (second compound 0.1 µM, first compound 0.01 µM): 7.83% | viability, T/C (second compound 0.1 µM, first compound 0.0316 µM): 4.57% | viability, T/C (second compound 0.1 µM, first compound 0.1 µM): 4.01% | viability, T/C (second compound 0.316 µM, first compound 0.000316 µM): 97.4% | viability, T/C (second compound 0.316 µM, first compound 0.001 µM): 57.1% | viability, T/C (second compound 0.316 µM, first compound 0.00316 µM): 12.2% | viability, T/C (second compound 0.316 µM, first compound 0.01 µM): 7.26% | viability, T/C (second compound 0.316 µM, first compound 0.0316 µM): 4.33% | viability, T/C (second compound 0.316 µM, first compound 0.1 µM): 3.89% | viability, T/C (second compound 1 µM, first compound 0.000316 µM): 90.9% | viability, T/C (second compound 1 µM, first compound 0.001 µM): 55.3% | viability, T/C (second compound 1 µM, first compound 0.00316 µM): 12.1% | viability, T/C (second compound 1 µM, first compound 0.01 µM): 7.25% | viability, T/C (second compound 1 µM, first compound 0.0316 µM): 4.02% | viability, T/C (second compound 1 µM, first compound 0.1 µM): 3.43% | viability, T/C (second compound 3.16 µM, first compound 0.000316 µM): 98% | viability, T/C (second compound 3.16 µM, first compound 0.001 µM): 51.8% | viability, T/C (second compound 3.16 µM, first compound 0.00316 µM): 12.3% | viability, T/C (second compound 3.16 µM, first compound 0.01 µM): 6.86% | viability, T/C (second compound 3.16 µM, first compound 0.0316 µM): 3.9% | viability, T/C (second compound 3.16 µM, first compound 0.1 µM): 2.97% | viability, T/C (second compound 10 µM, first compound 0.000316 µM): 67.6% | viability, T/C (second compound 10 µM, first compound 0.001 µM): 43.5% | viability, T/C (second compound 10 µM, first compound 0.00316 µM): 13.9% | viability, T/C (second compound 10 µM, first compound 0.01 µM): 7.24% | viability, T/C (second compound 10 µM, first compound 0.0316 µM): 4.44% | viability, T/C (second compound 10 µM, first compound 0.1 µM): 3.53%

Nc1ccn(C2OC(CO)C(O)C2(F)F)c(=O)n1 (stereo not given) + NC1CC1c1ccc(-c2cccc(O)c2)cc1
IC50 (second compound 0.1 µM): < 0.949 nM | IC50 (second compound 0.316 µM): < 0.949 nM | IC50 (second compound 1 µM): < 0.949 nM | IC50 (second compound 3.16 µM): < 0.949 nM | IC50 (second compound 10 µM): < 0.949 nM | viability, T/C (second compound 0.1 µM, first compound 0.000949 µM): 33.8% | viability, T/C (second compound 0.1 µM, first compound 0.003 µM): 14.3% | viability, T/C (second compound 0.1 µM, first compound 0.00949 µM): 4.63% | viability, T/C (second compound 0.1 µM, first compound 0.03 µM): 3.79% | viability, T/C (second compound 0.1 µM, first compound 0.0949 µM): 3.9% | viability, T/C (second compound 0.1 µM, first compound 0.3 µM): 3.38% | viability, T/C (second compound 0.316 µM, first compound 0.000949 µM): 34.3% | viability, T/C (second compound 0.316 µM, first compound 0.003 µM): 14.2% | viability, T/C (second compound 0.316 µM, first compound 0.00949 µM): 4.2% | viability, T/C (second compound 0.316 µM, first compound 0.03 µM): 3.68% | viability, T/C (second compound 0.316 µM, first compound 0.0949 µM): 3.51% | viability, T/C (second compound 0.316 µM, first compound 0.3 µM): 3.68% | viability, T/C (second compound 1 µM, first compound 0.000949 µM): 32.4% | viability, T/C (second compound 1 µM, first compound 0.003 µM): 12.8% | viability, T/C (second compound 1 µM, first compound 0.00949 µM): 4.05% | viability, T/C (second compound 1 µM, first compound 0.03 µM): 3.61% | viability, T/C (second compound 1 µM, first compound 0.0949 µM): 3.27% | viability, T/C (second compound 1 µM, first compound 0.3 µM): 3.33% | viability, T/C (second compound 3.16 µM, first compound 0.000949 µM): 28.3% | viability, T/C (second compound 3.16 µM, first compound 0.003 µM): 11.9% | viability, T/C (second compound 3.16 µM, first compound 0.00949 µM): 4.05% | viability, T/C (second compound 3.16 µM, first compound 0.03 µM): 3.61% | viability, T/C (second compound 3.16 µM, first compound 0.0949 µM): 3.53% | viability, T/C (second compound 3.16 µM, first compound 0.3 µM): 3.69% | viability, T/C (second compound 10 µM, first compound 0.000949 µM): 24.4% | viability, T/C (second compound 10 µM, first compound 0.003 µM): 12.5% | viability, T/C (second compound 10 µM, first compound 0.00949 µM): 4.33% | viability, T/C (second compound 10 µM, first compound 0.03 µM): 3.84% | viability, T/C (second compound 10 µM, first compound 0.0949 µM): 3.5% | viability, T/C (second compound 10 µM, first compound 0.3 µM): 3.65%
